Patent US20230123334A1, “AMINO LIPID COMPOUND, PREPARATION METHOD THEREFOR, AND APPLICATION THEREOF” (SHENZHEN SHENXIN BIOTECHNOLOGY CO., LTD., priority 2020, published 2023)

Tested on: HEK293 cells
Test: Preliminary screening as mRNA vectors, EGFP mRNA transfection of HEK293 cells
Type: cell-based
Settings: EGFP mRNA 50 ng per well, 96-well plates; percentage of GFP fluorescent cells relative to total number of cells (Hoechst)
Outline: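 Screening format: EGFP mRNA transfection (50 ng/well) into HEK293 in 10% FBS-supplemented DMEM. Percent green fluorescent cells, normalised to Hoechst nuclear count, gave the value; Lipofectamine2000 was the reference transfectant.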

Structure (SMILES): CCCCCCCCCNc1nc(NCCCN2CCN(C)CC2)nc(SCCCCCCCC)n1 [Compound D9S8N9]
- Absolute mRNA transfection efficiency in HEK293 cells: 57.0%

Structure (SMILES): CCCCCCCCCCCCCCCCCCSc1nc(NCCCCCCCCCCCCC)nc(NCCN2CCCCC2)n1 [Compound D4S18N13]
- Absolute mRNA transfection efficiency in HEK293 cells: 0.7%

Structure (SMILES): CCCCCCCCCSc1nc(NCCCCCCC)nc(NCCCN2CCOCC2)n1 [Compound D8S9N7]
- Absolute mRNA transfection efficiency in HEK293 cells: 2.2%

Structure (SMILES): CCCCCCCCCCCCCCSc1nc(NCCCCCCCCCCC)nc(NCCN2CCCC2)n1 [Compound D3S14N11]
- Absolute mRNA transfection efficiency in HEK293 cells: 30.9%

Structure (SMILES): CCCCCCCCCCSc1nc(NCCCN(C)C)nc(SCCCCCC)n1 [Compound D6S6S10]
- Absolute mRNA transfection efficiency in HEK293 cells: 31.4%

Structure (SMILES): CCCCCCCCCCCSc1nc(NCCCCCCCCC)nc(NCCCN2CCOCC2)n1 [Compound D8S11N9]
- Absolute mRNA transfection efficiency in HEK293 cells: 1.6%

Structure (SMILES): CCCCCCCCCSc1nc(NCCCN2CCN(C)CC2)nc(SCCCCCC)n1 [Compound D9S6S9]
- Absolute mRNA transfection efficiency in HEK293 cells: 5.6%

Structure (SMILES): CCCCCCCNc1nc(NCC2CCN(C)CC2)nc(SCCCCCC)n1 [Compound D10S6N7]
- Absolute mRNA transfection efficiency in HEK293 cells: 5.5%

Structure (SMILES): CCCCCCCCCCCCCCCCCCSc1nc(NCCCCCCCCCCCC)nc(NCCN(C)C)n1 [Compound D1S18N12]
- Absolute mRNA transfection efficiency in HEK293 cells: 2.3%

Structure (SMILES): CCCCCCCCCCCCSc1nc(NCCCCCCCCCCC)nc(NCCCN2CCOCC2)n1 [Compound D8S12N11]
- Absolute mRNA transfection efficiency in HEK293 cells: 0.4%

Structure (SMILES): CCCCCCCCCCCCCCSc1nc(NCC2CCN(C)CC2)nc(N(CCCCCCCCCCCC)CCCCCCCCCCCC)n1 [D10S14^2N12]
- Absolute mRNA transfection efficiency in HEK293 cells: 0.2%

Structure (SMILES): CCCCCCCCCCCCNc1nc(NCCN2CCCC2)nc(SCCCCCCC)n1 [Compound D3S7N12]
- Absolute mRNA transfection efficiency in HEK293 cells: 6.5%

Structure (SMILES): CCCCCCCCCCCCCCCNc1nc(NCCCN2CCN(C)CC2)nc(SCCCCCCC)n1 [Compound D9S7N15]
- Absolute mRNA transfection efficiency in HEK293 cells: 32.6%

Structure (SMILES): CCCCCCCCCCCCCCCCCCSc1nc(NCCCCCCCCCCC)nc(NCCN2CCCC2)n1 [Compound D3S18N11]
- Absolute mRNA transfection efficiency in HEK293 cells: 30.9%

Structure (SMILES): CCCCCCCCCCCCCCCCCCSc1nc(NCCCCCCCCCCCCCCC)nc(NCCN(C)C)n1 [Compound D1S18N15]
- Absolute mRNA transfection efficiency in HEK293 cells: 0.5%

Structure (SMILES): CCCCCCCCCCCCCCCSc1nc(NCCCCCCCCCCC)nc(NCCN2CCCC2)n1 [Compound D3S15N11]
- Absolute mRNA transfection efficiency in HEK293 cells: 23.2%

Structure (SMILES): CCCCCCCCCNc1nc(NCCCN2CCOCC2)nc(SCCCCCCC)n1 [Compound D8S7N9]
- Absolute mRNA transfection efficiency in HEK293 cells: 10.6%

Structure (SMILES): CCCCCCCCCSc1nc(NCCN(C)C)nc(SCCCCCC)n1 [Compound D1S6S9]
- Absolute mRNA transfection efficiency in HEK293 cells: 2.3%

Structure (SMILES): CCCCCCCCCCSc1nc(NCCCN2CCOCC2)nc(SCCCCCC)n1 [Compound D8S6S10]
- Absolute mRNA transfection efficiency in HEK293 cells: 4.2%

Structure (SMILES): CCCCCCCCCCCCCCCCCCNc1nc(NCC2CCN(C)CC2)nc(SCCCCCCCCCCCCCCCC)n1 [Compound D10S16N18]
- Absolute mRNA transfection efficiency in HEK293 cells: 3.0%

Structure (SMILES): CCCCCCCCCCCCCCCCCCNc1nc(NCCCN2CCN(C)CC2)nc(SCCCCCCCCCC)n1 [Compound D9S10N18]
- Absolute mRNA transfection efficiency in HEK293 cells: 9.0%

Structure (SMILES): CCCCCCCCCCCCSc1nc(NCCCCCCCC)nc(NCCN2CCCCC2)n1 [Compound D4S12N8]
- Absolute mRNA transfection efficiency in HEK293 cells: 1.6%

Structure (SMILES): CCCCCCCCNc1nc(NCCCN2CCN(C)CC2)nc(SCCCCCC)n1 [Compound D9S6N8]
- Absolute mRNA transfection efficiency in HEK293 cells: 2.5%

Structure (SMILES): CCCCCCCCCNc1nc(NCCCN2CCOCC2)nc(SCCCCCC)n1 [Compound D8S6N9]
- Absolute mRNA transfection efficiency in HEK293 cells: 1.2%

Structure (SMILES): CCCCCCCCCCCCCCCSc1nc(NCCCCCCCC)nc(NCCN(C)C)n1 [Compound D1S15N8]
- Absolute mRNA transfection efficiency in HEK293 cells: 98.3%

Structure (SMILES): CCCCCCCCCCCCCCCCCCNc1nc(NCCN(CC)CC)nc(SCCCCCCCCCCCCCCCCCC)n1 [Compound D7S18N18]
- Absolute mRNA transfection efficiency in HEK293 cells: 0.0%

Structure (SMILES): CCCCCCCCCCCNc1nc(NCCN(CC)CC)nc(SCCCCCCCC)n1 [Compound D7S8N11]
- Absolute mRNA transfection efficiency in HEK293 cells: 9.0%
